Values quoted from earlier work in patent US20240173460A1, “STORAGE SOLUTIONS FOR MAINTAINING OF AXONAL VIABILITY” (Board of Regents, The University of Texas System, priority 2022, published 2024).

In the case of `[Cl-].[K+]` [Potassium Chloride], the solubility in water is listed as “freely soluble in water”.
